Test results from US20260200982A1, “HER RECEPTOR DERIVED PEPTIDES AND METHODS OF USE THEREOF” (Ramot at Tel-Aviv University Ltd., priority 2022, published 2026).
The star is where a group is joined. Myristoyl = CCCCCCCCCCCCCC(=O)*

How the values were obtained:
[1] = system: MIA PaCa-2 pancreatic cancer cells; assay: Methylene blue viability assay, MIA PaCa-2; format: cell-based, human; conditions: MiaPaCa2; 72 hours; FIGS. 4B and 4C; read-out: IC50 (cell viability)
From the text: Cell lines—Human breast cancer cell lines SKBR3 [Peles E et al. EMBO J. (1993) 12(3):961-71] and MCF7 [Faigenbloom L et al., Mol Syst Biol. (2015) 11(12):845] and human glioblastoma U87 [Goldberg L et al. Cancer Res. (2006) 66(24):11709-17] cell line, as well as Rat-1 fibroblast cells and H-Ras-transformed Rat-1 cells (EJ cells) [Marom M et al. J Biol Chem. (1995) 270(38):22263-70] and human Panc-1 and MIA PaCa-2 pancreatic cell lines (Rak R et al. Oncoscience. 2014 1(1):39-48; Weisz B et al. Oncogene (1999) 18, 2579±2588) were all grown in Dulbecco's modified Eagle's medium (DMEM; Biological Industries, Beithaemek, Israel). Human colorectal cancer cell lines DLD-1 (ATTC Cat No. CCL-221), HCT-116 (ATTC Cat No. CCL-247) and LNCaP prostate cancer cells were grown in Roswell Park Memorial Institute 1640 (RPMI 1640) medium and McCoy's 5A media, respectively (Sigma-Aldrich). All media were supplemented with antibiotics and 10% heat-inactivated fetal bovine serum (FBS; Gibco). Human breast cell line MCF10A [Bott A et al. Oncotarget. […]
Methylene blue viability assay—Cells were plated in 96-wells plates at cell densities of 1.5×10^3 (EJ, DLD-1), 3×10^3 (Rat-1, HCT-116, U87), 5×10^3 (SKBR3, MCF7) and 6×10^3 (MCF10A) cells/well. […] IC-50 values were calculated using a non-linear regression model (logarithmic inhibitor vs. normalized response-variable slope) with the GraphPad Prism 6 software.

Panc-1 cells = assay: Colony formation assay, Panc-1; format: cell-based, human; conditions: 8 μM, 72 hours, FIG. 8
Method: Colony formation assay—Cells were plated onto 12-well plate (6×10^4 cells/well) and treated with either PBS or myr-NLS at the IC50 concentration for 3 days. Cells were collected and replated in 10-cm plates (at 3 dilutions of 1:10, 1:20 and 1:40). After 7-14 days when visible and yet separated colonies were formed, the cells were fixed with 0.1% acetic acid in PBS, and stained with 0.4% crystal violet in 0.1% acetic acid. Total colonies area was calculated using the ImageJ program.
In order to test the effect of myr-NLS on cell tumorigenicity, a colony formation assay was performed. To this end, Panc-1 and MIA PaCa-2 cells were treated or untreated for 72 hours with IC50 dose of myr-NLS (SEQ ID NO: 5, 8 μM and 4.5 μM respectively). Cells were then seeded at the same dilutions in new plates until colonies were formed.

Akt = assay: Western blot analysis of dissected Panc-1 tumors, Akt; format: in vivo, human; conditions: Panc-1 tumor lysates; FIGS. 10A-C
Method: Pancreatic Tumor Growth in Nude Mice—The study was conducted according to the NIH Guidelines for Use and Care of Laboratory Animals and following the approval by Animal Care Committee of the Tel Aviv University. Nude CD1-Nu mice (25-30 g) housed in barrier facilities on a 12-h light/dark cycle one week prior to the injection of tumor cells (day zero). On day zero, 2×10^6 Panc 1 cells in 0.1 ml of PBS were implanted subcutaneously just above the right femoral joint. Tumor size was measured every 3-4 days. When the tumors were apparently seen and the calculated tumor size was 40 mm^3, the animals were divided randomly into two groups of mice (control vehicle treated and myr-NLS (SEQ ID NO: 5) treated; 8 mice per group). Treatment with the myr-NLS (SEQ ID NO: 5) was performed by intraperitoneal injection of 25 μg in 100 μl PBS (or 100 μl PBS for control mice) every day. Tumors size was measured 3 times a week. At the end of the experiment, the mice were sacrificed, and the tumors were dissected and used for further analysis.
Western blot analysis—Half of each tumor was homogenized in lysis buffer, using a Potter-Elvehjem manual homogenizer, cleared and kept at −70° C. […] Immunoreactive bands were detected with the enhanced chemiluminescence reagent (Luminata Crescendo Western HRP). Densitometric quantification analysis of the resulted images was done using ImageJ program. […]

IC50 [1]: 3.95 µM
Substance: Myr-RRRHIVRKRTLRRLL-OH (Myristoyl-RRRHIVRKRTLRRLL-OH; SMILES CCCCCCCCCCCCCC(=O)N[C@@H](CCCNC(=N)N)C(=O)N[C@@H](CCCNC(=N)N)C(=O)N[C@@H](CCCNC(=N)N)C(=O)N[C@@H](Cc1c[nH]cn1)C(=O)N[C@H](C(=O)N[C@H](C(=O)N[C@@H](CCCNC(=N)N)C(=O)N[C@@H](CCCCN)C(=O)N[C@@H](CCCNC(=N)N)C(=O)N[C@H](C(=O)N[C@@H](CC(C)C)C(=O)N[C@@H](CCCNC(=N)N)C(=O)N[C@@H](CCCNC(=N)N)C(=O)N[C@@H](CC(C)C)C(=O)N[C@@H](CC(C)C)C(=O)O)[C@@H](C)O)C(C)C)[C@@H](C)CC) [myr-NLS]
colony formation (total colonies area) (Panc-1 cells): fewer and smaller colonies
Akt levels in tumors (Akt): significant reduction
